Laboratory results reported in article PMC5712521, “Dendrogenin A drives LXR to trigger lethal autophagy in cancers” (Nature Communications, 2017).

Columns and labels:
Assay type in all cases: cell-based, human
[1] = system: KG1 cells; assay: Immunoblot densitometry; settings: 5 µM DDA; for LC3-II protein, densitometry relative to control: KG1, 24 h, 2 µM TO, 2 µM GW, 10 µM 22(R)HC
Experimental: Immunoblotting was carried out as described previously. Proteins were separated on SDS-PAGE gels, electro-transferred onto polyvinylidene difluoride membranes and incubated overnight at 4 °C with the following antibodies: anti-Atg3, anti-Atg5 (D1G9), anti-Atg7 (D12B11), anti-Beclin (D40C5), anti-caspase-3 (Cell Signaling), anti-Bcl-2 (Millipore), anti-Bax (Millipore), anti-LC3 (Sigma-Aldrich), anti-LXRα (SantaCruz), anti-LXRβ (SantaCruz), anti-Nur77 (Active motif), anti-NOR1 (R&D systems), anti-PARP (Cell Signaling), anti-Vps34 (Cell Signaling), or anti-Actin (Millipore). For visualization, an ECL plus kit (Amersham Biosciences) was used, and chemiluminescence was measured by autoradiography (Supplementary Fig. 9). Specific bands were quantified with ImageQuant software.
(§1) Supplementary Fig. 6. […]
D ata from b, f, g, h, j, p, q ar e the m eans ± S.E.M. of 3 independent experiments performed in triplicate (*P<0.05, **P<0.01, ***P<0.001, t test). Images are representative of 3 independent experim ents.
Supplementary Fig. 7. a Im munoblots of Nur77 and NOR1 proteins in cells treated or not for 24 h with 5 µM DDA. b Real-time PCR of Nur77 and NOR1 expression in KG1 cells stably transfected with control shRNA (clone shCTRL) or with shRNA against LXRβ (clones sh3LXRβ and sh4LXRβ) and treated with 10 µM DDA for 24 h. c Immunoblots of Nur77 and NOR1 protein expression in KG1 cells stably transfected with control shRNA (clone shCTRL), shRNA against Nur77 (shNur77), shRNA against NOR1 (shNOR1), or shRNAs against both Nur77 and NOR1 (shNur77 + shNOR1). d NOD/SCID mice
(n=16- 20 mice/group) engrafted with KG1 cells or HL60 cells were treated with DDA (20 mg/kg/day, i.p.) or solvent vehicle (control). Tumor growth was monitored over time and was analyzed for significance using repeated measures ANOVA (***P<0.001). The mean tumor volumes ± SEM are shown. e Average tumor weight at the end of the experiments in d. *P<0.5, **P<0.01, ANOVA. f Mean tumor volumes measured at the end of the experiments for HL60 and KG1 graf ted into NOD/SCID or NMRI-Fo x1 -nude mice treated with DDA (40 mg/kg/day, p.o. or 20 mg/kg/day, i.p.) or solvent vehicle (control) (n=10- 20 mice per group). Values represent the means ± S.E.M. (**P<0.01, ***P<0.001, ANOVA). g Histochemical analysis of the expression of LC3 and P62 in HL60 tumor sections isolated from NOD/SCID mice treated or not with DDA (20 mg/kg/day, i.p.). h Quantification of LC3 punctate cells in shCTRL and shLXRβ KG1 tumors. i Quantification of DDA levels in tumors 4 h after the final administration of DDA. j Box plot of TCGA RNA-seq data from patients with melanoma showing that LXRβ is the predominant LXR isoform expressed.
***P<0.001. k, l Immunoblotting of the indicated proteins in primary AML cells exposed to vehicle or 5 µM DDA for 24 h. m, n qPCR analysis of the expression of Nur77 and NOR1 in primary AML cells from 10 patients exposed to vehicle or DDA for 24 h. Bars represent S.E.M. (**P<0.01, ***P<0.001, t test). Data from b, h, i represent means ± S.E.M. of triplicate samples (>100 cell analyses per sample), **P<0.01, ***P<0.001, t test. All data or images are representative of 3 independent experiments.

[2] = system: KG1 cells; assay: qRT-PCR of Nur77 and NOR1; settings: KG1, 24 h; 5 µM DDA, 2 µM TO, 2 µM GW, 10 µM 22(R)HC
Experimental: (§2) Total RNA was extracted from tumor cells or MEFs using an RNA Extraction kit (Qiagen) or Trizol (Invitrogen), respectively, and was quantified with NanoDrop. Complementary DNA (cDNA) synthesis was performed with 1 μg RNA iScript Reverse Transcriptase (Bio-Rad). 25 ng cDNA was amplified using SyBR Supermix (Bio-Rad). RNA expression of the different genes of interest (Supplementary Tables 1, 2) were determined using the ΔΔCT method, where the difference in the threshold cycle (ΔCT) values of the target gene and the housekeeping gene for each sample was normalized to the ΔCT value of the untreated sample.
as §1
(§3) D ata are expressed relative to the control (solvent vehic le). D ata from b, f, g, h, j, p, q ar e the m eans ± S.E.M. of 3 independent experiments performed in triplicate (*P<0.05, **P<0.01, ***P<0.001, t test). Images are representative of 3 independent experim ents.

[3] = system: HL60 cells; assay: qRT-PCR of Nur77 and NOR1; settings: HL60, 24 h; 5 µM DDA, 2 µM TO, 2 µM GW, 10 µM 22(R)HC
Experimental: as §2, §1, §3

[4] = system: SKMEL-28 cells; assay: Sterol analysis by GC/MS
Experimental: Sterols in cell homogenates were extracted with a solvent mixture containing chloroform/methanol 2/1 (v/v) spiked with epicoprostanol as the internal standard. Lipids were partitioned in chloroform after the addition of saline and saponified by methanolic potassium hydroxide (0.5 N, 60 °C, 15 min). The fatty acids released were methylated with BF3-methanol (12%, 60 °C, 15 min) to not interfere with the chromatography of sterols. The sterols were re-extracted in hexane and silylated, as described previously. The trimethylsilylether derivatives of the sterols were separated by gas chromatography (GC) (Hewlett–Packard 6890 series) in a medium polarity capillary column RTX-65, (65% diphenyl 35% dimethyl polysiloxane, length 30 m, diameter 0.32 mm, film thickness 0.25 μm (Restesk, Evry, France)). The mass spectrometer (Agilent 5975 inert XL) in series with the GC was set up for the detection of positive ions. Ions were produced in the electron impact mode at 70 eV. Sterols were identified by the fragmentogram in the scanning mode and quantified by selective monitoring of the specific ions after normalization with the internal standard epicoprostanol and calibration with weighed standards. […]
Quantification of sterols ac cum ulation in SKMEL- 2 8 c ells either expressing LXRβ (shCT L) or with LXRβ (sh3 or sh4LXR β) k nock ed down after 24 h treatm ent with 2.5 µ M DD A or solvent vehicle. Anal yses were perform ed by GC/MS. f Quantification of sterols accumulated in m elanom a cells after 24 h treatm ent with 10 µM 22(R) HC, 1 µ M GW , 100 nM T O or solvent […]
vehicle. […]

[5] = SKMEL-28, 24 h, 10 µM 22(R)HC, 1 µM GW, 100 nM TO, GC/MS
[6] = SKMEL-28 Sh3LXRβ, 2.5 µM DDA, 24 h
[7] = SKMEL-28 Sh4LXRβ, 2.5 µM DDA, 24 h
[8] = SKMEL-28 shCTRL, 2.5 µM DDA, 24 h

SMILES	LC3-II protein, densitometry relative to control [1]	NOR1 mRNA levels (Fold over control) [2] [fold]	Nur77 mRNA levels (Fold over control) [2] [fold]	NOR1 mRNA levels (Fold over control) [3] [fold]	Nur77 mRNA levels (Fold over control) [3] [fold]	Sterol amount/total sterol: 8-DHC [4, 5]	Sterol amount/total sterol: zymostenol [4, 5]	other results
CC(C)CC[C@@H](O)[C@@H](C)[C@H]1CC[C@H]2[C@@H]3CC=C4C[C@@H](O)CC[C@]4(C)[C@H]3CC[C@]12C [22(R)HC, 22(R)-hydroxycholesterol]	1.5	6.3	1.1	0.7	0.8	0.05± 0.03	0.37± 0.07	–
CC(C)CCC[C@@H](C)[C@H]1CC[C@H]2[C@@H]3C[C@@H](NCCc4cnc[nH]4)[C@@]4(O)C[C@@H](O)CC[C@]4(C)[C@H]3CC[C@]12C [DDA, Dendrogenin A]	8.3	12.2	8.8	6.3	11.2	–	–	ATG3 protein, densitometry relative to vehicle ([1]; KG1, 24 h): 2.1; ATG5 protein, densitometry relative to vehicle ([1]; KG1, 24 h): 0.9; ATG7 protein, densitometry relative to vehicle ([1]; KG1, 24 h): 1.2; BECN1 protein, densitometry relative to vehicle ([1]; KG1, 24 h): 0.9; NOR1 protein, densitometry relative to untreated ([1]; KG1, 24 h): 3.1; Nur77 protein, densitometry relative to untreated ([1]; KG1, 24 h): 3.4; Sterol amount/total sterol: 7-DHC [4, 6]: 0.03± 0.02; Sterol amount/total sterol: 8-DHC [4, 6]: 1.52± 0.10; Sterol amount/total sterol: desmosterol [4, 6]: 0.01± 0.009; Sterol amount/total sterol: lathosterol [4, 6]: 0.71± 0.02; Sterol amount/total sterol: zymostenol [4, 6]: 5.78± 0.82; Sterol amount/total sterol: 7-DHC [4, 7]: 0.39± 0.09; Sterol amount/total sterol: 8-DHC [4, 7]: 4.32± 0.66; Sterol amount/total sterol: desmosterol [4, 7]: 0.02± 0.005; Sterol amount/total sterol: zymostenol [4, 7]: 6.57± 0.92; Sterol amount/total sterol: 7-DHC [4, 8]: 0.03± 0.006; Sterol amount/total sterol: 8-DHC [4, 8]: 5.81± 0.89; Sterol amount/total sterol: desmosterol [4, 8]: 0.01± 0.008; Sterol amount/total sterol: lathosterol [4, 8]: 0.41± 0.03; Sterol amount/total sterol: zymostenol [4, 8]: 2.60±0.07
O=C(O)Cc1cccc(OCCCN(Cc2cccc(C(F)(F)F)c2Cl)CC(c2ccccc2)c2ccccc2)c1 [GW, GW3965]	0.8	1.8	0.8	0.3	1.3	0.07± 0.01	0.29± 0.09	–
O=S(=O)(c1ccccc1)N(CC(F)(F)F)c1ccc(C(O)(C(F)(F)F)C(F)(F)F)cc1 [TO, TO901317]	1.0	1.1	1.5	2.7	0.4	0.04± 0.02	0.36± 0.08	–
